Converted amounts (≈) assume the structure as drawn.

Consider two compounds from ChEMBL document CHEMBL6121063, “Identification of a Potent and Selective CDK9 Degrader as a Targeted Therapeutic Option for the Treatment of Small-Cell Lung Cancer” (J Med Chem, 2025).

Series [1] concerns NCI-H69. The series can be described thus: Antiproliferative activity against human NCI-H69 cells assessed as inhibition of cell growth incubated for 72 hrs by CCK8 assay. The settings on record: NCI-H69, 72 h. The series is classed as functional, cell-based. (Tetrazolium dyes change colour on reduction, which living cells bring about.)
Another series deals with NCI-H446. The series can be described thus: Antiproliferative activity against human NCI-H446 cells assessed as inhibition of cell growth incubated for 72 hrs by CCK8 assay. It counts as functional, cell-based. The settings on record: NCI-H446, 72 h.
Series [2] deals with CDK9/cyclin T1 (Homo sapiens) (UniProt O60563+P50750). The series can be described thus: Inhibition of CDK9/Cyclin T1 (unknown origin) at 10 nM relative to control. It counts as protein-complex assay.
Series [3] deals with Cyclin-dependent kinase 13/Cyclin-K (Homo sapiens) (UniProt Q14004+O75909). The series can be described thus: Inhibition of CDK13/Cyclin K (unknown origin) at 10 nM relative to control. The series is classed as protein-complex assay.
Series [4] has as its target CDK12/Cyclin K (Homo sapiens) (UniProt O75909+Q9NYV4). In words: Inhibition of CDK12/Cyclin K (unknown origin) at 10 nM relative to control. The series is classed as protein-complex assay.
The target of series [5] is T1, Cyclin-dependent kinase 5/CDK5 activator 1 (Homo sapiens) (UniProt Q00535+Q15078). The series can be described thus: Inhibition of CDK5/p25NCK (unknown origin) at 10 nM relative to control. The series is classed as protein-complex assay.
Series [6] deals with CDK4/Cyclin D3 (Homo sapiens) (UniProt P11802+P30281). The series can be described thus: Inhibition of CDK4/cyclin D3 (unknown origin) at 10 nM relative to control. The series is classed as protein-complex assay.
Series [7] addresses Cyclin-dependent kinase 4/cyclin D1 (Homo sapiens) (UniProt P11802+P24385). The series can be described thus: Inhibition of CDK4/cyclin D1 (unknown origin) at 10 nM relative to control. It counts as protein-complex assay.
Series [8] has as its target T1, Cyclin-dependent kinase 5/CDK5 activator 1 (Homo sapiens). In words: Inhibition of CDK5/p35NCK (unknown origin) at 10 nM relative to control. It counts as protein-complex assay.
Series [9] deals with CDK6/cyclin D1 (Homo sapiens) (UniProt P24385+Q00534). In words: Inhibition of CDK6/cyclin D1 (unknown origin) at 10 nM relative to control. The series is classed as protein-complex assay.
Series [10] addresses Cyclin-dependent kinase 1/cyclin B1 (Homo sapiens) (UniProt P06493+P14635). In words: Inhibition of CDK1/cyclin B1 (unknown origin) at 10 nM relative to control. The series is classed as protein-complex assay.
Series [11] deals with CDK6/cyclin D3 (Homo sapiens) (UniProt P30281+Q00534). The series can be described thus: Inhibition of CDK6/cyclin D3 (unknown origin) at 10 nM relative to control. It counts as protein-complex assay.
In series [12] the target is CDK3/Cyclin E (Homo sapiens) (UniProt P24864+Q00526). The series can be described thus: Inhibition of CDK3/cyclin E1 (unknown origin) at 10 nM relative to control. It counts as protein-complex assay.
The test system of series [13] is NCI-H69. In words: Induction of apoptosis in human NCI-H69 cells assessed as decrease in MCL-1 expression incubated for 36 hrs by Western blot analysis. It counts as functional, cell-based. Background: Immunoblotting shows a protein as a band on a membrane.
For series [14], the system named is NCI-H69. The series can be described thus: Induction of apoptosis in human NCI-H69 cells assessed as decrease in BCL-2 expression incubated for 36 hrs by Western blot analysis. The series is classed as functional, cell-based.
Series [15] relates to NCI-H69. In words: Induction of apoptosis in human NCI-H69 cells assessed as increase in cleaved PARP level incubated for 36 hrs by Western blot analysis. The series is classed as functional, cell-based.
The subject of series [16] is NCI-H69. In words: Induction of apoptosis in human NCI-H69 cells assessed as increase in cleaved caspase-3 level incubated for 36 hrs by Western blot analysis. The series is classed as functional, cell-based.
Series [17] concerns NCI-H69. In words: Induction of apoptosis in human NCI-H69 cells assessed as increase in p53 level incubated for 36 hrs by Western blot analysis. It counts as functional, cell-based.
The target of series [18] is T2, Protein cereblon/Cyclin-dependent kinase 9 (Homo sapiens, UniProt P50750+Q96SW2). The series can be described thus: PROTAC activity at CRBN/CDK9 in human NCI-H69 cells assessed as induction of CDK9 degradation at 10 nM by Western blot analysis relative to control. The series is classed as cell-based.
Target sequence in this assay (P50750 whole entry, looked up): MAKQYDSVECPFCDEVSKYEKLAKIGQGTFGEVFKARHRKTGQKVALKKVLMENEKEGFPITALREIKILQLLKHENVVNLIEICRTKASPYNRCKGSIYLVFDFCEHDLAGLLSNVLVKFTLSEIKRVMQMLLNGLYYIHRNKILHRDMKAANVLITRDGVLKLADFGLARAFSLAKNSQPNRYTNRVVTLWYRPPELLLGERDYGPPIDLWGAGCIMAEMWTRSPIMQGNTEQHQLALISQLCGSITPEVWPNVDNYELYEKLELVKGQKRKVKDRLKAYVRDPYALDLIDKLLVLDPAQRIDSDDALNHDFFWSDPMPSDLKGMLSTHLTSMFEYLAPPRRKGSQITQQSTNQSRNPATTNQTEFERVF
Target sequence in this assay (Q96SW2 whole entry, looked up): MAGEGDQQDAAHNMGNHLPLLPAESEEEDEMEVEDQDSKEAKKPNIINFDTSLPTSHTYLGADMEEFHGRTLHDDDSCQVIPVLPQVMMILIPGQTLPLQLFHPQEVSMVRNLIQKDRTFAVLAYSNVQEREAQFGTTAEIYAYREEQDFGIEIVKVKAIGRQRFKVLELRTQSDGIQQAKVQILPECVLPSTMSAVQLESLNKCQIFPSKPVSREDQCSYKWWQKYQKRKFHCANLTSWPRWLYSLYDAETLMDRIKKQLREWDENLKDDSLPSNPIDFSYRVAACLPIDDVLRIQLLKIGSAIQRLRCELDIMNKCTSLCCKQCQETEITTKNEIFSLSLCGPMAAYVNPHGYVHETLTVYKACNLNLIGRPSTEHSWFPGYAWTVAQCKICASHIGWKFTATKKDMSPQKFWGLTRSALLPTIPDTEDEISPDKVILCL
In series [19] the target is T2, Protein cereblon/Cyclin-dependent kinase 9. In words: PROTAC activity at CRBN/CDK9 in human NCI-H446 cells assessed as induction of CDK9 degradation at 10 nM by Western blot analysis relative to control. It counts as cell-based.
Target sequence in this assay (P50750 whole entry, looked up): as the sequence (P50750 whole entry, looked up) above
Target sequence in this assay (Q96SW2 whole entry, looked up): as the sequence (Q96SW2 whole entry, looked up) above
Series [20] shares this target. The series can be described thus: PROTAC activity at CRBN/CDK9 in human NCI-H69 cells assessed as induction of CDK9 degradation incubated for 8 hrs by Western blot analysis. It counts as cell-based.
Target sequence in this assay (P50750 whole entry): as the sequence (P50750 whole entry, looked up) above
Target sequence in this assay (Q96SW2 whole entry): as the sequence (Q96SW2 whole entry, looked up) above
Series [21] in a line: Metabolic stability in mouse liver microsomes assessed as parent compound remaining measured after 60 mins. The series is classed as ADME, Microsome. The settings on record: read-out: Stability. (Microsomes from liver hold many membrane-bound enzymes, among them those of drug oxidation.)
Series [22] in a line: Metabolic stability in mouse liver microsomes assessed as half-life. It counts as ADME, Microsome. The settings on record: liver microsomes.
The nature of series [23]: Metabolic stability in mouse liver microsomes assessed as intrinsic clearance. The series is classed as ADME, Microsome. The settings on record: liver microsomes, read-out: CLH.
Series [24] in a line: Metabolic stability in human liver microsomes assessed as parent compound remaining measured after 60 mins. It counts as ADME, Microsome. The settings on record: read-out: Stability.
Series [25] can be described thus: Metabolic stability in human liver microsomes assessed as half-life. The series is classed as ADME, Microsome. The settings on record: liver microsomes.
The nature of series [26]: Metabolic stability in human liver microsomes assessed as intrinsic clearance. It counts as ADME, Microsome. The settings on record: liver microsomes, read-out: CLH.
A short description of series [27]: Apparent permeability across apical to basolateral side in human Caco-2 cells at 2 uM measured after 60 mins by HPLC analysis. The series is classed as ADME, cell-based.
Series [28] in a line: Apparent permeability across basolateral to apical side in human Caco-2 cells at 2 uM measured after 60 mins by HPLC analysis. It counts as ADME, cell-based.
Series [29] can be described thus: Efflux ratio of apparent permeability across basolateral to apical over apical to basolateral side in human Caco-2 cells at 2 uM measured after 60 mins by HPLC analysis. It counts as ADME, cell-based.
The nature of series [30]: Kinetic solubility of compound in FeSSIF buffer incubated for 2 hrs by LC-MS/MS analysis. It counts as physicochemical. The settings on record: read-out: Kinetic_solubility.

T1 sequence (Q00535 whole entry): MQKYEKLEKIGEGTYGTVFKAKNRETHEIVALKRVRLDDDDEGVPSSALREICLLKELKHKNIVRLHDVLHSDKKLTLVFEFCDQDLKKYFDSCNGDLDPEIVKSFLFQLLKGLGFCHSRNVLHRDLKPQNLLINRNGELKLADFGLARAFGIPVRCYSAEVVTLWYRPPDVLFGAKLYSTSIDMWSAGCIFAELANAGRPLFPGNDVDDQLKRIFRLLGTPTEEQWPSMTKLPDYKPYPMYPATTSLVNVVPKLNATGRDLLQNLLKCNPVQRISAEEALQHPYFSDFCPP
T1 sequence (Q15078 99-307 partner limits assumed): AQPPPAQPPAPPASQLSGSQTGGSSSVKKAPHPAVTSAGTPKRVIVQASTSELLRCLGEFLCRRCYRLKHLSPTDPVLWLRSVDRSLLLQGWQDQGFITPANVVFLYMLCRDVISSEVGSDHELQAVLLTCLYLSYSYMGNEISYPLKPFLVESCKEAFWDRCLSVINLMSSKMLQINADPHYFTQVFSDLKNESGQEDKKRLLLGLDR
Chain of CDK3/Cyclin E (Homo sapiens) (P24864 whole entry, looked up): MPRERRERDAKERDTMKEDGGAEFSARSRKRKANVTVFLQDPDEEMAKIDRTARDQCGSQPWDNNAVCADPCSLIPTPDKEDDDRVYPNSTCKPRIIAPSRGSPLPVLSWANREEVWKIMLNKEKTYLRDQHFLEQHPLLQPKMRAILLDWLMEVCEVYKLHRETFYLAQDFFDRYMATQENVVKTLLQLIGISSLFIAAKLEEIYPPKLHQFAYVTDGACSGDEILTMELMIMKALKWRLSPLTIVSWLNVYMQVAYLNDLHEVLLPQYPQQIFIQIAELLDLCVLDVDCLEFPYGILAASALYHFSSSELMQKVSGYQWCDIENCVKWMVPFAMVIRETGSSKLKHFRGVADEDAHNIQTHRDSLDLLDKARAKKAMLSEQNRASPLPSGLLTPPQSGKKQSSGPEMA
Chain of CDK3/Cyclin E (Homo sapiens) (Q00526 whole entry, looked up): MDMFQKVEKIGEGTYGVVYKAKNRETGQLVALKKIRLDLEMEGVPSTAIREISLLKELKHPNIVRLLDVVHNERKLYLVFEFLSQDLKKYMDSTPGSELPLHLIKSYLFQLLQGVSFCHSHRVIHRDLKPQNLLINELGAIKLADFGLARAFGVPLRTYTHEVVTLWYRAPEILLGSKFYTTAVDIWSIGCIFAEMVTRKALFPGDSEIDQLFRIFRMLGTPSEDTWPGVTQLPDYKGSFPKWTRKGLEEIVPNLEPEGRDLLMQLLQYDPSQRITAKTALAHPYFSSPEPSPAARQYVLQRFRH
Chain of Cyclin-dependent kinase 1/cyclin B1 (Homo sapiens) (P06493 whole entry, looked up): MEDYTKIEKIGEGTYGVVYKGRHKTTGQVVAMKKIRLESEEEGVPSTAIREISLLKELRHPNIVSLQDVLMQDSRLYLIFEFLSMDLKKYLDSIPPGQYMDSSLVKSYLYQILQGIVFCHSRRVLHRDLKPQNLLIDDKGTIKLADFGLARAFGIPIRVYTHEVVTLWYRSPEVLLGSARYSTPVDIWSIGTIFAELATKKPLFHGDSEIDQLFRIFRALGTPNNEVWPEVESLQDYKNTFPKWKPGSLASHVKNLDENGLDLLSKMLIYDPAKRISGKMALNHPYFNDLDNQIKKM
Chain of Cyclin-dependent kinase 1/cyclin B1 (Homo sapiens) (P14635 whole entry, looked up): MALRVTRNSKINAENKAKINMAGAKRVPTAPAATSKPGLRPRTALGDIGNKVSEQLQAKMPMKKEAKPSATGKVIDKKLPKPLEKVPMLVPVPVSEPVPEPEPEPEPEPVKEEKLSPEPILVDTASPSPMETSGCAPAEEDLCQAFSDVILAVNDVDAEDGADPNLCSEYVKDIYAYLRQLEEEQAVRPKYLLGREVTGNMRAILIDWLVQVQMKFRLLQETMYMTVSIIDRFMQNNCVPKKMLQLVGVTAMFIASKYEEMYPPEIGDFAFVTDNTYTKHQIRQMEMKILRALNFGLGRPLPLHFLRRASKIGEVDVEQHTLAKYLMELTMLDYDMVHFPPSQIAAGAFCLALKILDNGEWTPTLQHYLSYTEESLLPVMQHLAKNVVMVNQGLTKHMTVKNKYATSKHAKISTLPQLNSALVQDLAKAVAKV

For orientation: IC50 means the point on the concentration scale where inhibition reaches its midpoint. For orientation: inhibition means the drop in the measured response relative to a control, in per cent. Lower therefore signals little suppression. Take `O=C(NC1CCNCC1)c1n[nH]cc1NC(=O)c1c(Cl)cccc1Cl` [AT-7519]: the IC50 in the series with NCI-H69 [1] was 186 nM; in the series with NCI-H446 it was 173 nM. The inhibition in series [2] amounted to 79%; in series [3], 36%; in series [4], 29%; in series [5], 26%; in series [6], 47%; in series [7], 36%. For the same compound, the inhibition in series [8] was 20%; in [9], 34%; in series [10] it was 31%; in [11], 20%; in [12] it was 16%. The Activity entry with NCI-H69 [13], with NCI-H69 [14], with NCI-H69 [15], in the series on NCI-H69 [16] and with NCI-H69 [17] was “Dose-dependent-effect” throughout.
Broadly, the DC50 is the midpoint of the concentration-degradation curve. What is called half-life is the time in which the quantity being followed falls by half. By Papp A→B is commonly meant the apparent permeability from the apical to the basolateral side of a cell layer. Broadly, the Papp B→A is how fast a substance crosses the layer from the basolateral side. Usually efflux ratio stands for a quotient of directional permeabilities that is used to spot active efflux. On to `O=C1CCC(N2C(=O)c3ccc(N4CCN(CC5CCN(CC(=O)N6CCC(NC(=O)c7n[nH]cc7NC(=O)c7c(Cl)cccc7Cl)CC6)CC5)CC4)cc3C2=O)C(=O)N1` (stereo not drawn), for which the Activity in series [18] is 89.1%; in [19], 83.9%. Further, the IC50 was determined as 1.3 nM with NCI-H69 [1] and 2.6 nM in the series with NCI-H446. For the same compound, the DC50 in series [20] came out at 3.8 nM. In addition, the remaining at 1 h in [21] is 71.9%; in series [24], 24.3%. The half-life in series [22] was 2.1 h; in series [25], 0.507 h. The microsomal CLint in [23] came to 11 µL/min/mg; in [26], 46 µL/min/mg. In series [27], the apparent permeability from apical to basolateral (Papp A→B) at 1 h, 2 µM amounted to 0.326 ×10⁻⁶ cm/s. Moreover, the basolateral-to-apical permeability (Papp B→A) at 1 h, 2 µM in series [28] was 5.27 ×10⁻⁶ cm/s. Besides, the efflux ratio at 1 h, 2 µM in [29] came out at 16.2. Further, the solubility kinetic at 2 h in series [30] was 9.08 µM (≈ 7.83 µg/mL).
